*1 amine or outer side, *2 acyl side, *3 side chain or, on linkers, in order; H or OH if unused. Where a SMILES comes first, the peptide text is derived from it. Side-chain parts run from the residue outwards. [ ]: non-standard residue; d: D form. The star is where a group is joined. C20 diacid = O=C(O)CCCCCCCCCCCCCCCCCCC(=O)*; C18 diacid = O=C(O)CCCCCCCCCCCCCCCCC(=O)*; C16 diacid = O=C(O)CCCCCCCCCCCCCCC(=O)*; γGlu = O=C(O)[C@H](CCC(=O)[*:2])N[*:1]; NMeI = CC[C@H](C)[C@H](NC)C(=O)O; Ac6c = NC1(C(=O)O)CCCCC1; Api = NC1(C(=O)O)CCNCC1; Abu = CC[C@H](N)C(=O)O; Aib = CC(C)(N)C(=O)O
Assays:
human CRF2a receptor = molecular target: T1, human CRF2a receptor (Homo sapiens, UniProt Q13324); test: Activity at human CRF2a receptor, cAMP functional assay in TeloHEAC cells; type: cell-based; settings: TeloHEAC cells stably expressing human CRF2a receptor, relative to urocortin 2 (100 nM = 100%)
T1 construct: expressed in transfected cells; host or cells: TeloHEAC cells
T1 sequence (Q13324 1-411): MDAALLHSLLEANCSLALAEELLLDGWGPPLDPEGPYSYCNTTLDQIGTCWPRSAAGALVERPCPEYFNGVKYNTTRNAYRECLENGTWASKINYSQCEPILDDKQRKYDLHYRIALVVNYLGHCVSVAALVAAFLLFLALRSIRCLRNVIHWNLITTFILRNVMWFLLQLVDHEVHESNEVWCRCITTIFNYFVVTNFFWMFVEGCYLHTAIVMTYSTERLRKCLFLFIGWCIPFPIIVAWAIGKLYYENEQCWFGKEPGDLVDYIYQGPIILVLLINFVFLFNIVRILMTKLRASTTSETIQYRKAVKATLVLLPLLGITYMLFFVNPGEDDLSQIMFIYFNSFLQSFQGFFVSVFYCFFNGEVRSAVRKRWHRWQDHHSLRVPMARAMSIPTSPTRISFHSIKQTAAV
Procedure, shortened: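 TeloHEAC cells stably expressing human CRF2a (10000 cells/well, suspended in HBSS/20 mM HEPES with 2 mM IBMX) were exposed to compounds for 30 min at 37 °C. cAMP was read as the 665/620 nm fluorescence ratio after 1 h at room temperature. EC50 was derived relative to 100 nM urocortin 2, set as 100%.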

CFR1R receptor = molecular target: T2, CFR1R receptor (Homo sapiens, UniProt P34998); test: Activity at anti-target CFR1R receptor, cAMP assay in CRF1R-overexpression CHO-K1 cells; type: cell-based; settings: 100% = Sauvagine at 100 nM; for EC50: cAMP
T2 construct: host or cells: CHO-K1 (clone 2)
T2 sequence (P34998 24-415): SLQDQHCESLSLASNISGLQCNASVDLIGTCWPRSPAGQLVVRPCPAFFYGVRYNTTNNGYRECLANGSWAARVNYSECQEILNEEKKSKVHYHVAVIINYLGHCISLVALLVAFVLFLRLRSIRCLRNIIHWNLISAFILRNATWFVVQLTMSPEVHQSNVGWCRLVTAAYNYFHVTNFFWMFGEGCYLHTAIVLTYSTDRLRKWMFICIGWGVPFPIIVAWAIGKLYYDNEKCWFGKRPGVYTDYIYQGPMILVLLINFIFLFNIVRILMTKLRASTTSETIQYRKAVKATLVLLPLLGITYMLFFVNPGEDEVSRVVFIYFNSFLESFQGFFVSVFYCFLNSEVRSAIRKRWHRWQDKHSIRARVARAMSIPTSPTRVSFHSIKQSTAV
Procedure, shortened: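 Signal is normalised to 100 nM Sauvagine, taken as 100% activation, in clone 2 cells plated at a final 4000 cells/well from frozen stocks.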

Row | Compound | EC50 (human CRF2a receptor) [nM] | Emax (% I) (CFR1R receptor) | EC50 (CFR1R receptor) [nM]
1 | CC[C@H](NC(=O)[C@H](CC(N)=O)NC(=O)[C@@H](NC(=O)[C@H](CCC(=O)O)NC(=O)[C@H](C)NC(=O)[C@H](CCC(N)=O)NC(=O)[C@H](CCC(=O)O)NC(=O)[C@H](CCCNC(=N)N)NC(=O)[C@H](CCC(N)=O)NC(=O)[C@H](CCCCN)NC(=O)[C@H](CCCCN)NC(=O)[C@H](CCC(N)=O)NC(=O)[C@H](CCCCN)NC(=O)[C@H](CCC(=O)O)NC(=O)[C@H](CCC(N)=O)NC(=O)[C@H](CCC(=O)O)NC(=O)[C@H](CC(C)C)NC(=O)[C@H](CC(C)C)NC(=O)[C@@H](NC(=O)[C@H](CCCCN)NC(=O)[C@H](CCCCNC(=O)CC[C@H](NC(=O)CCCCCCCCCCCCCCCCC(=O)O)C(=O)O)NC(=O)[C@H](CC(C)C)NC(=O)[C@H](CCCCN)NC(=O)[C@@H](NC(=O)[C@@H]1CCCN1C(=O)[C@H](NC(=O)[C@H](CC(=O)O)NC(=O)[C@H](CC(C)C)NC(=O)[C@H](CO)NC(=O)[C@H](CC(C)C)NC(=O)[C@@H](NC(=O)[C@@H](NC)[C@@H](C)CC)C(C)C)C(C)C)[C@@H](C)CC)[C@@H](C)CC)[C@@H](C)O)C(=O)N[C@@H](CCC(N)=O)C(=O)N[C@H](C(=O)N[C@@H](CC(C)C)C(=O)N[C@@H](C)C(=O)N[C@@H](CCC(N)=O)C(=O)N[C@H](C(N)=O)C(C)C)[C@@H](C)CC [compound 139] (H-[NMeI]VLSLD[dV]PIKLK([γGlu-C18 diacid])KILLEQEKQKKQREQAETN[Abu]QILAQV-NH2) | 0.05 | 13 | > 250
2 | CC[C@H](C)[C@H](NC)C(=O)N[C@H](C(=O)N[C@@H](CC(C)C)C(=O)N[C@@H](CO)C(=O)N[C@@H](CC(C)C)C(=O)N[C@@H](CC(=O)O)C(=O)N[C@@H](C(=O)N1CCC[C@H]1C(=O)N[C@H](C(=O)N[C@@H](CCCCN)C(=O)N[C@@H](CC(C)C)C(=O)N[C@@H](CCCCNC(=O)CC[C@H](NC(=O)CCCCCCCCCCCCCCCCC(=O)O)C(=O)O)C(=O)N[C@@H](CCC(N)=O)C(=O)N[C@H](C(=O)N[C@@H](CC(C)C)C(=O)N[C@@H](CC(C)C)C(=O)N[C@@H](CCCCN)C(=O)N[C@@H](CCC(N)=O)C(=O)N[C@@H](CCC(=O)O)C(=O)N[C@@H](CCCNC(=N)N)C(=O)N[C@@H](CCC(N)=O)C(=O)N[C@@H](CCCCN)C(=O)N[C@@H](CCCCN)C(=O)N[C@@H](CCC(N)=O)C(=O)N[C@@H](CCCNC(=N)N)C(=O)N[C@@H](CCC(=O)O)C(=O)N[C@@H](CCC(N)=O)C(=O)N[C@@H](C)C(=O)N[C@@H](CCC(=O)O)C(=O)N[C@@H](CCCCN)C(=O)N[C@@H](CC(N)=O)C(=O)N[C@@H](C)C(=O)N[C@@H](CCC(N)=O)C(=O)N[C@H](C(=O)N[C@@H](CC(C)C)C(=O)N[C@@H](CCC(=O)O)C(=O)N[C@@H](CCC(N)=O)C(=O)N[C@H](C(N)=O)C(C)C)[C@@H](C)CC)[C@@H](C)CC)[C@@H](C)CC)C(C)C)C(C)C [compound 24] (H-[NMeI]VLSLD[dV]PIKLK([γGlu-C18 diacid])QILLKQERQKKQREQAEKNAQILEQV-NH2) | 0.04 | 37 | > 250
3 | CC[C@H](C)[C@H](NC(C)=O)C(=O)N[C@H](C(=O)N[C@@H](CC(C)C)C(=O)N[C@@H](CO)C(=O)N[C@@H](CC(C)C)C(=O)N[C@@H](CC(=O)O)C(=O)N[C@@H](C(=O)N1CCC[C@H]1C(=O)N[C@H](C(=O)N[C@@H](CCCCN)C(=O)N[C@@H](CC(C)C)C(=O)N[C@@H](CCCCNC(=O)CC[C@H](NC(=O)CCCCCCCCCCCCCCCCCCC(=O)O)C(=O)O)C(=O)N[C@@H](CCCCN)C(=O)N[C@H](C(=O)N[C@@H](CC(C)C)C(=O)N[C@@H](CC(C)C)C(=O)N[C@@H](CCC(=O)O)C(=O)N[C@@H](CCC(N)=O)C(=O)N[C@@H](CCC(=O)O)C(=O)N[C@@H](CCCCN)C(=O)N[C@@H](CCC(N)=O)C(=O)N[C@@H](CCCCN)C(=O)N[C@@H](CCCCN)C(=O)N[C@@H](CCC(N)=O)C(=O)N[C@@H](CCCNC(=N)N)C(=O)N[C@@H](CCC(=O)O)C(=O)N[C@@H](CCC(N)=O)C(=O)N[C@@H](C)C(=O)N[C@@H](CCC(=O)O)C(=O)N[C@H](C(=O)N[C@@H](CC(N)=O)C(=O)NC1(C(=O)N[C@@H](CCC(N)=O)C(=O)N[C@H](C(=O)N[C@@H](CC(C)C)C(=O)N[C@@H](C)C(=O)N[C@@H](CCC(N)=O)C(=O)N[C@H](C(N)=O)C(C)C)[C@@H](C)CC)CCNCC1)[C@@H](C)O)[C@@H](C)CC)[C@@H](C)CC)C(C)C)C(C)C [compound 207] (Ac-IVLSLD[dV]PIKLK([γGlu-C20 diacid])KILLEQEKQKKQREQAETN[Api]QILAQV-NH2) | 0.12 | 65 | 

Now from value to compound:

Row | EC50 (human CRF2a receptor) [nM] | Emax (% I) (CFR1R receptor) | EC50 (CFR1R receptor) [nM] | Compound
4 | 0.13 | 47 |  | CC[C@H](C)[C@H](NC(C)=O)C(=O)N[C@H](C(=O)N[C@@H](CC(C)C)C(=O)N[C@@H](CO)C(=O)N[C@@H](CC(C)C)C(=O)N[C@@H](CC(=O)O)C(=O)N[C@@H](C(=O)N1CCC[C@H]1C(=O)N[C@H](C(=O)N[C@@H](CCCCN)C(=O)N[C@@H](CC(C)C)C(=O)N[C@@H](CCCCNC(=O)CC[C@H](NC(=O)CCCCCCCCCCCCCCC(=O)O)C(=O)O)C(=O)N[C@@H](CCC(N)=O)C(=O)N[C@H](C(=O)N[C@@H](CC(C)C)C(=O)N[C@@H](CC(C)C)C(=O)N[C@@H](CCCCN)C(=O)N[C@@H](CCC(N)=O)C(=O)N[C@@H](CCC(=O)O)C(=O)N[C@@H](CCCNC(=N)N)C(=O)N[C@@H](CCC(N)=O)C(=O)N[C@@H](CCCCN)C(=O)N[C@@H](CCCCN)C(=O)N[C@@H](CCC(N)=O)C(=O)N[C@@H](CCCNC(=N)N)C(=O)N[C@@H](CCC(=O)O)C(=O)N[C@@H](CCC(N)=O)C(=O)N[C@@H](C)C(=O)N[C@@H](CCC(=O)O)C(=O)N[C@@H](CCCCN)C(=O)N[C@@H](CC(N)=O)C(=O)NC(C)(C)C(=O)N[C@@H](CCC(N)=O)C(=O)N[C@H](C(=O)N[C@@H](CC(C)C)C(=O)N[C@@H](CCC(=O)O)C(=O)N[C@@H](CCC(N)=O)C(=O)N[C@H](C(N)=O)C(C)C)[C@@H](C)CC)[C@@H](C)CC)[C@@H](C)CC)C(C)C)C(C)C [compound 16] (Ac-IVLSLD[dV]PIKLK([γGlu-C16 diacid])QILLKQERQKKQREQAEKN[Aib]QILEQV-NH2)
5 | 0.81 | 9 | > 250 | CC[C@H](C)[C@H](NC(C)=O)C(=O)N[C@H](C(=O)N[C@@H](CC(C)C)C(=O)N[C@@H](CO)C(=O)N[C@@H](CC(C)C)C(=O)N[C@@H](CC(=O)O)C(=O)N[C@@H](C(=O)N1CCC[C@H]1C(=O)N[C@H](C(=O)N[C@@H](CCCCN)C(=O)N[C@@H](CC(C)C)C(=O)N[C@@H](CCCCNC(=O)CC[C@H](NC(=O)CCCCCCCCCCCCCCC(=O)O)C(=O)O)C(=O)N[C@@H](CCCCN)C(=O)N[C@H](C(=O)N[C@@H](CC(C)C)C(=O)N[C@@H](CC(C)C)C(=O)N[C@@H](CCC(=O)O)C(=O)N[C@@H](CCC(N)=O)C(=O)N[C@@H](CCC(=O)O)C(=O)N[C@@H](CCCCN)C(=O)N[C@@H](CCC(N)=O)C(=O)N[C@@H](CCCCN)C(=O)N[C@@H](CCCCN)C(=O)N[C@@H](CCC(N)=O)C(=O)N[C@@H](CCCNC(=N)N)C(=O)N[C@@H](CCC(=O)O)C(=O)N[C@@H](CCC(N)=O)C(=O)N[C@@H](C)C(=O)N[C@@H](CCC(=O)O)C(=O)N[C@H](C(=O)N[C@@H](CC(N)=O)C(=O)NC1(C(=O)N[C@@H](CCC(N)=O)C(=O)N[C@H](C(=O)N[C@@H](CC(C)C)C(=O)N[C@@H](C)C(=O)N[C@@H](CCC(N)=O)C(=O)N[C@H](C(N)=O)C(C)C)[C@@H](C)CC)CCCCC1)[C@@H](C)O)[C@@H](C)CC)[C@@H](C)CC)C(C)C)C(C)C [compound 59] (Ac-IVLSLD[dV]PIKLK([γGlu-C16 diacid])KILLEQEKQKKQREQAETN[Ac6c]QILAQV-NH2)

Source: patent US20260001928A1 (CORTERIA PHARMACEUTICALS, priority 2022, published 2026)
